Where two headings read alike, the source gives them in different places. Blank lines part the entries; values can stand above or below the compound they belong to.
Experiments:
[1] = tested on: T1, Laccase from Trichoderma lixii FLU1 (TlFLU1); test: spectrophotometric oxidation assay, […] nm, Michaelis-Menten fit; type: biochemical; conditions: 50 mM acetate buffer pH 5, 30 °C; substrate varied 1-5 mM
T1 construct: native extracellular enzyme purified from culture; monomer, 44 kDa (SDS-PAGE)

[2] = tested on: T2, Laccase from Talaromyces pinophilus FLU12 (TpFLU12); test: as above; type: biochemical; conditions: 50 mM acetate buffer pH 7, 50 °C; substrate varied 1-5 mM
T2 construct: native extracellular enzyme purified from culture

[3] = tested on: Laccase from Trichoderma lixii FLU1 (TlFLU1); conditions: 50 mM acetate buffer pH 5, 30 °C; substrate varied 1-5 mM
[4] = tested on: T2, Laccase from Talaromyces pinophilus FLU12 (TpFLU12); test: spectrophotometric oxidation assay, […] nm, Michaelis-Menten fit; type: biochemical; conditions: 50 mM acetate buffer pH 7, 50 °C; substrate varied 1-5 mM; remark: listed apart in the source
[5] = tested on: T1, Laccase from Trichoderma lixii FLU1 (TlFLU1); test: as above; type: biochemical; conditions: 50 mM acetate buffer pH 5, 30 °C; substrate varied 1-5 mM; remark: listed apart in the source
[6] = tested on: T1, Laccase from Trichoderma lixii FLU1 (TlFLU1); test: as above; type: biochemical; conditions: 50 mM acetate buffer pH 5, 30 °C; substrate varied 1-5 mM; remark: listed apart in the source

Km [1]: 13 µM
SMILES: COc1cccc(OC)c1O [2,6-DMP, 2,6-dimethoxyphenol]

Km [2]: 8.2 µM
Km [3]: 10.8 µM
SMILES: CCn1c(=NN=c2sc3cc(S(=O)(=O)O)ccc3n2CC)sc2cc(S(=O)(=O)O)ccc21 [ABTS, 2,2-azino-bis-(3-ethyl-benzothiazoline-6-sulphonic acid)]

Km [4]: 38.6 µM
Km [5]: 43 µM
SMILES: O=C(O)/C=C/c1ccc(O)c(O)c1 [caffeic acid]

Km [6]: 12.7 µM
SMILES: COc1ccccc1O [guaiacol]

— publication PMC11167041, “Purification, characterization and three-dimensional structure prediction of multicopper oxidase Laccases from Trichoderma lixii FLU1 and Talaromyces pinophilus FLU12” (Scientific Reports, 2024)
